Format in all cases: cell-based
For one assay, the target named is T1, p.Gly551Asp-CFTR (Homo sapiens, UniProt P13569, G551D).
T1 construct: expressed in transfected cells; host or cells: CFBE41o- cells stably expressing HS-YFP, transient transfection of pcDNA5-CFTR
The assay can be described thus: HS-YFP assay, CFBE41o- cells transiently transfected with p.Gly551Asp-CFTR. Conditions: LSO-24 5 μM, LSO-150 3 μM, VX-770 1 μM, ABBV-3067 10 μM, Fsk 5 μM. Here is the method: (§1) Site-directed mutagenesis was performed using KOD HOT start DNA polymerase (#71086-3, Sigma-Aldrich, St. Louis, MO, USA), according to manufacturer’s instructions, to insert variants under study (c.613C>T or p.Pro205Ser; c.1645A>C or p.Ser549Arg; c.1647T>G or p.Ser549Arg; c.1652G>A or p.Gly551Asp; c.2834C>T or p.Ser945Leu; and c.4046G>A or p.Gly1349Asp) into CFTR cDNA cloned in the pcDNA5 expression vector. After confirmation by Sanger sequencing, CFBE41o^− cells expressing HS-YFP seeded onto 96-well plates were transfected with 0.1 µg per well of the indicated plasmid. Lipofectamine 3000 (#L3000015, ThermoFischer Scientific, Waltham, MA, USA) was used as the transfection agent diluted in Opti-MEM reduced serum medium (#31985070, ThermoFischer Scientific, Waltham, MA, USA) according to manufacturer’s instructions.
(§2) CFTR activity was determined by the HS-YFP microfluorimetric assay (described in detail in previous studies) using CFBE41o^− cells expressing HS-YFP together with stably expressed p.Arg334Trp-CFTR or transiently transfected with CFTR cDNA (variants p.Pro205Ser, p.Ser549Arg, p.Gly551Asp, p.Ser945Leu, and p.Gly1349Asp) cloned into pcDNA5. […] Thereafter, cells were transferred to a microplate reader (Tecan Infinite 200 Pro) equipped with high-quality excitation (485 ± 20 nm) and emission (535 ± 25 nm) filters for YFP. Each reading consisted of a continuous 14 s fluorescence recording with 2 s before and 12 s after injection of 165 μL of an iodide-containing solution (PBS with Cl^− replaced by I^−; final I^− concentration: 100 mM). Data were normalized to the initial background-subtracted fluorescence. […]
(§3) As CFTR variants with similar defect(s) may respond differently to the same treatment(s), we assessed whether LSO-24 or its derivative LSO-150, alone or in combination(s), could rescue CFTR activity for other variants with gating/conductance defects. […] After 24 h, the cells were acutely stimulated with Fsk plus test compound(s), and the cell fluorescence was recorded before and after the addition of an I^−-containing solution. […]

Another assay concerns the target T2, p.Arg334Trp-CFTR (Homo sapiens, UniProt P13569, R334W).
T2 construct: expressed in transfected cells
The assay can be described thus: HS-YFP assay on a plate reader (CFTR-mediated I- influx), CFBE41o- cells co-expressing HS-YFP and p.Arg334Trp-CFTR. Here is the method:
Parental CFBE41o^− cells stably expressing HS-YFP (p.His148Gln-Ile152Leu) were cultured in minimum essential medium (MEM, #10-010-CV, Corning, VA, USA) supplemented with 10% fetal bovine serum (#LTI 10270-106, Gibco, Carlsbad, CA, USA). CFBE41o^− cells stably co-expressing HS-YFP (p.Phe46Leu-His148Gln-Ile152Leu) and p.Arg334Trp-CFTR were cultured in a similar medium including 2 µg mL^−1 puromycin (#P8833, Sigma-Aldrich, St. Louis, MO, USA). For the YFP assay of CFTR activity, cells were plated (30,000 cells/well) on 96-well clear-bottom, black-walled microplates (#655090, Greiner Bio-One, Kremsmünster, Austria). All cells were maintained in a humidified incubator (5% CO2) at 37 °C.
(§4) CFTR activity was determined by the HS-YFP microfluorimetric assay (described in detail in previous studies) using CFBE41o^− cells expressing HS-YFP together with stably expressed p.Arg334Trp-CFTR or transiently transfected with CFTR cDNA (variants p.Pro205Ser, p.Ser549Arg, p.Gly551Asp, p.Ser945Leu, and p.Gly1349Asp) cloned into pcDNA5. Briefly, cells were washed with phosphate-buffered saline (PBS; in mM: 137 NaCl, 2.7 KCl, 8.1 Na2HPO4, 1.5 KH2PO4, 1 CaCl2, and 0.5 MgCl2) and then incubated for 30 min at 37 °C with 60 μL of PBS plus Fsk (5 μM) and test compound(s) to stimulate CFTR channels. DMSO (vehicle) and VX-770 (1 μM) were used as negative and positive controls, respectively. All conditions were performed in triplicate on each plate. Thereafter, cells were transferred to a microplate reader (Tecan Infinite 200 Pro) equipped with high-quality excitation (485 ± 20 nm) and emission (535 ± 25 nm) filters for YFP. Each reading consisted of a continuous 14 s fluorescence recording with 2 s before and 12 s after injection of 165 μL of an iodide-containing solution (PBS with Cl^− replaced by I^−; final I^− concentration: 100 mM). Data were normalized to the initial background-subtracted fluorescence. To determine the I^− influx rate, the final 11 s of the data for each well were fitted with an exponential function to extrapolate the initial slope (dF/dt).
All the compounds (Scheme 1) were tested in CFBE41o^− cells co-expressing HS-YFP and p.Arg334Trp-CFTR to assess CFTR-mediated I^− influx based on fluorescence quenching. The cells were incubated for 30 min with Fsk (an adenyl cyclase activator that increases intracellular cAMP levels) plus the test compounds in two different concentrations (3 and 20 μM). Thereafter, the efficacy of the compounds in rescuing CFTR activity was determined by the YFP quenching rate and normalized to DMSO (negative control). […] Such an increase was equivalent to that of the cells treated with VX-770 or apigenin (used as positive controls).
Next, the active compounds were submitted for further analysis for evaluation of their potency and efficacy. To this aim, the compounds were retested as potentiators at various concentrations in the range 0.16–30 μM with Fsk on CFBE41o^− cells.

A further assay concerns the target T3, p.Gly1349Asp-CFTR (Homo sapiens, UniProt P13569, G1349D).
T3 construct: expressed in transfected cells; host or cells: CFBE41o- cells stably expressing HS-YFP, transient transfection of pcDNA5-CFTR
Kind of assay: HS-YFP assay, CFBE41o- cells transiently transfected with p.Gly1349Asp-CFTR. The note with it: Fsk 5 μM. How it is done:
as §1, §4, §3

For another assay, the target named is T4, p.Ser945Leu-CFTR (Homo sapiens, UniProt P13569, S945L).
T4 construct: expressed in transfected cells; host or cells: CFBE41o- cells stably expressing HS-YFP, transient transfection of pcDNA5-CFTR
Kind of assay: HS-YFP assay, CFBE41o- cells transiently transfected with p.Ser945Leu-CFTR. Conditions: LSO-24 5 μM, LSO-150 3 μM, Fsk 5 μM. Here is the method:
Site-directed mutagenesis was performed using KOD HOT start DNA polymerase (#71086-3, Sigma-Aldrich, St. Louis, MO, USA), according to manufacturer’s instructions, to insert variants under study (c.613C>T or p.Pro205Ser; c.1645A>C or p.Ser549Arg; c.1647T>G or p.Ser549Arg; c.1652G>A or p.Gly551Asp; c.2834C>T or p.Ser945Leu; and c.4046G>A or p.Gly1349Asp) into CFTR cDNA cloned in the pcDNA5 expression vector. After confirmation by Sanger sequencing, CFBE41o^− cells expressing HS-YFP seeded onto 96-well plates were transfected with 0.1 µg per well of the indicated plasmid. […]
as §2

Another assay addresses T5, p.Ser549Arg-CFTR (Homo sapiens, UniProt P13569, S549R).
T5 construct: expressed in transfected cells; host or cells: CFBE41o- cells stably expressing HS-YFP, transient transfection of pcDNA5-CFTR
Kind of assay: HS-YFP assay, CFBE41o- cells transiently transfected with p.Ser549Arg-CFTR. The note with it: c.1645A>C or c.1647T>G, Fsk 5 μM. Here is the method:
as §1, §2, §3

T5 sequence (P13569 whole entry S549R): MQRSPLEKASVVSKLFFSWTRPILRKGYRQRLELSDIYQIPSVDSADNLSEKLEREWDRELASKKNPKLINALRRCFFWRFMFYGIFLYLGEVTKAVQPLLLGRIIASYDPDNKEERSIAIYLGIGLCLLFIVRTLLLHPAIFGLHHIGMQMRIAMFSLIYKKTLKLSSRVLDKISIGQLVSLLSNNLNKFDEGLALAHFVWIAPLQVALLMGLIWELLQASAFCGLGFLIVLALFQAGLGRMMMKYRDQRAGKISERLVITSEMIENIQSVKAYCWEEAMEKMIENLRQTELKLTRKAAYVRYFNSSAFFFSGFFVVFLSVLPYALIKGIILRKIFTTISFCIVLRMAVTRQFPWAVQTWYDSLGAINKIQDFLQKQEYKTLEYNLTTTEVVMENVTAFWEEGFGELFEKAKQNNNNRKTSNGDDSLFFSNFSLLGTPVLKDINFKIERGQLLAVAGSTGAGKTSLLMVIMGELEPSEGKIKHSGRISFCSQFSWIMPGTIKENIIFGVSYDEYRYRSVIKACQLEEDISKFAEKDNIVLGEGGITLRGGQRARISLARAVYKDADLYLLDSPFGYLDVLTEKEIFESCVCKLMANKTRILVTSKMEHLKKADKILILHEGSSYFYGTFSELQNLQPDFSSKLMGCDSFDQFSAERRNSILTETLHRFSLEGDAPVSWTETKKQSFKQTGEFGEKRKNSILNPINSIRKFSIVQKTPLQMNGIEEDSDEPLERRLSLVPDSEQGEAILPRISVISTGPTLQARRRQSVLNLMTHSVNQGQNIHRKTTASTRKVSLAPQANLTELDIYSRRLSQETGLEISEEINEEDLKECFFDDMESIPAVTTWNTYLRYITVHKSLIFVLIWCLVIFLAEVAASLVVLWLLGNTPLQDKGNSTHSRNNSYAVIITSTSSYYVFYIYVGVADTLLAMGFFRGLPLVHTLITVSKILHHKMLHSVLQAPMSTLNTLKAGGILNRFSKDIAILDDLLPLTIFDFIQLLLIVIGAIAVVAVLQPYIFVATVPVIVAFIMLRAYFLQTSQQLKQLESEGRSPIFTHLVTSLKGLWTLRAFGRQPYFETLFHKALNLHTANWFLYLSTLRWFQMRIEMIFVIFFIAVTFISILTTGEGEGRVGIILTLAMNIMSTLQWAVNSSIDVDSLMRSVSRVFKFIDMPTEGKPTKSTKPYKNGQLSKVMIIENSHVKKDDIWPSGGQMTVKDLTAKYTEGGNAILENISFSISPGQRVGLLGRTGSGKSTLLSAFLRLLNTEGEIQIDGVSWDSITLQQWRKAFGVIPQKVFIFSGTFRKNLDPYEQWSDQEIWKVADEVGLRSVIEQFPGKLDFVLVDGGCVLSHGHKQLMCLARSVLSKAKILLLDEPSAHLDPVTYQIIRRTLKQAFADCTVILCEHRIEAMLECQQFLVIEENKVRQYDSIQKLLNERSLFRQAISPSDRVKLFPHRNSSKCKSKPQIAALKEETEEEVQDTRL
T2 sequence (P13569 whole entry R334W): as the sequence (P13569 whole entry S549R) above, with R334W, R549S counted along it
T3 sequence (P13569 whole entry G1349D): as the sequence (P13569 whole entry S549R) above, with R549S, G1349D counted along it
T4 sequence (P13569 whole entry S945L): as the sequence (P13569 whole entry S549R) above, with R549S, S945L counted along it
T1 sequence (P13569 whole entry G551D): as the sequence (P13569 whole entry S549R) above, with R549S, G551D counted along it

A word on the EC50: it is the concentration needed to bring the measured effect to its halfway point. For the molecule `CCOC(=O)c1ccc(-n2cc(C(O)c3ccc(Br)cc3)nn2)cc1` (stereo not shown) [LSO-150], the “CFTR activity (fluorescence quenching rate), single compound” value at p.Gly551Asp-CFTR is “increased CFTR activity”; at p.Ser945Leu-CFTR, “increased CFTR activity”; at p.Ser549Arg-CFTR (LSO-24 5 μM, LSO-150 3 μM) it was “increased CFTR activity”. Moreover, the concentration giving a half-maximal response (EC50) at p.Arg334Trp-CFTR (CFBE41o- cells, with Fsk, concentrations 0.16–30 μM, read-out: EC50 (potentiation of p.Arg334Trp-CFTR activity)) was determined as 1010 nM. The “Fluorescence quenching rate in combination with ABBV-974” value on p.Arg334Trp-CFTR (LSO-150 3 μM or LSO-153 5 μM + ABBV-974 10 μM, Fsk 5 μM, vs single potentiator) is “further increase in the fluorescence quenching rate”. Besides, the “Fluorescence quenching rate in combination with ABBV-3067” value at p.Arg334Trp-CFTR (LSO-150 3 μM or LSO-153 5 μM + ABBV-3067 10 μM, Fsk 5 μM, vs single potentiator) was “further increase in the fluorescence quenching rate”. Also, the “Fluorescence quenching rate in combination with VX-770” value on p.Arg334Trp-CFTR (LSO-150 3 μM or LSO-153 5 μM + VX-770 1 μM, Fsk 5 μM, vs single potentiator) is on record as “further increase in the fluorescence quenching rate”. Besides, the “Fluorescence quenching rate in combination with apigenin” value on p.Arg334Trp-CFTR (LSO-150 3 μM or LSO-153 5 μM + apigenin 50 μM, Fsk 5 μM, vs single potentiator) is listed as “equivalent cell-fluorescence quenching rate to that of each compound individually”. Further, the “CFTR-mediated I- influx (YFP quenching rate normalized to DMSO)” value at p.Arg334Trp-CFTR (test compound 3 and 20 μM, 30 min with Fsk 5 μM, vs DMSO) is “increase in CFTR-mediated I^− influx”. The “Fluorescence quenching rate, effect in combination(s) with VX-770 or ABBV-3067” value at p.Gly1349Asp-CFTR (LSO-24 5 μM or LSO-150 3 μM added to VX-770 1 μM or ABBV-3067 10 μM) is “no effect”. The “Fluorescence quenching rate, single compound” value on p.Gly1349Asp-CFTR (LSO-24 5 μM, LSO-150 3 μM, VX-770 1 μM, ABBV-3067 10 μM) is “no effect”. Besides, the “Net effect with co-administration of ABBV-3067” value at p.Ser549Arg-CFTR (+ ABBV-3067 10 μM) is on record as “increased”. Besides, the “Net effect with co-administration of VX-770” value at p.Ser549Arg-CFTR (+ VX-770 1 μM) is given as “increased”.

The values are drawn from paper PMC11762957, “Rescue of Mutant CFTR Channel Activity by Investigational Co-Potentiator Therapy” (Biomedicines, 2025).
